Source: article PMC6264418, “t-Bu2SiF-Derivatized D2-Receptor Ligands: The First SiFA-Containing Small Molecule Radiotracers for Target-Specific PET-Imaging” (Molecules, 2011)
Where two headings read alike, the source gives them in different places.

Experiments:
human D2 receptor [1] = biological target: T1, human D2 receptor (Homo sapiens, UniProt P14416); assay: [3H]spiperone binding assay, dopamine D2-receptor affinity (HEK293 cells stably expressing D2 receptors)
T1 construct: expressed in transfected cells
T1 sequence (P14416 whole entry): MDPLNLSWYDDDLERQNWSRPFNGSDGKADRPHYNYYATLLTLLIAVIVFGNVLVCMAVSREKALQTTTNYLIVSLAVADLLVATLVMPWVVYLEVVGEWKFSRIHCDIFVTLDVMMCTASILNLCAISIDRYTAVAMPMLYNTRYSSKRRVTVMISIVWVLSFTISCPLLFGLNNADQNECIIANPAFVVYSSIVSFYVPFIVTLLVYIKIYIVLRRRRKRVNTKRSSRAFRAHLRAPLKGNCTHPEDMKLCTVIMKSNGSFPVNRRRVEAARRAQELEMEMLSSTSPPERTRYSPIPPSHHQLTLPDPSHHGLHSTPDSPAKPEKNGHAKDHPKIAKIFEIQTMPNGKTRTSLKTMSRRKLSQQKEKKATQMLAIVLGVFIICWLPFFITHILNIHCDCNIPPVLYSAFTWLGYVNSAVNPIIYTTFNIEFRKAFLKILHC
Protocol: Source of the dopamine-D2-receptors was cell line HEK293 which expresses the D2 receptors stably. […] All substances were evaluated in 3 independent competition experiments in six concentrations (each in triplicate). The Ki-values were calculated from the IC50-values according to Cheng-Prusoff as described in detail in [23].

human D2 receptor [2] = biological target: T1, human D2 receptor; parameters: method as in PMID 12570798; settings: D2-receptor antagonists, literature affinity; cited from earlier work
[3] = ratio of Ki values at the D2 receptor

Row | SMILES | D2-receptor affinity range (human D2 receptor [2]) | Ki (human D2 receptor [1]) [nM] | factor by which affinity is reduced compared to raclopride (human D2 receptor [1]; [3]) | factor by which affinity is reduced compared to fallypride (1) (human D2 receptor [1]; [3]) | further results
1 | C=CCN1CCC[C@H]1CNC(=O)c1cc(CCCF)cc(OC)c1OC [Fallypride, fallypride, reference compound] | picomolar |  |  |  | Ki (human D2 receptor [1]; D2-receptor affinity, [3H]spiperone competition, 3 independent experiments, Ki from IC50 by Cheng-Prusoff, read-out: Ki (nM ± SEM)): 0.0965 ± 0.0153 nM
2 | CCN1CCC[C@H]1CNC(=O)c1c(O)c(Cl)cc(Cl)c1OC [Raclopride, raclopride] | nanomolar |  |  |  | 
3 | C=CCN1CCC[C@H]1CNC(=O)c1ccc([Si](F)(C(C)(C)C)C(C)(C)C)cc1 [SiFA-DDMFP, 4c, (S)-N-((1-Allylpyrrolidine-2-yl)methyl)-4-(di-tert-butylfluorosilyl) benzamide] |  | 62.7 ± 16.9 |  |  | 
4 | C=CCN1CCC[C@H]1CNC(=O)c1cc([Si](F)(C(C)(C)C)C(C)(C)C)ccc1OC [SiFA-DMFP, 4a, (S)-N-((1-Allylpyrrolidine-2-yl)methyl)-5-(di-tert-butylfluorosilyl)-2-methoxybenzamide] |  | 13.6 ± 4.3 | 11 |  | factor by which affinity is reduced compared to desmethoxyfallypride (2) (human D2 receptor [1]; [3]): 22
5 | C=CCN1CCC[C@H]1CNC(=O)c1cc([Si](F)(C(C)(C)C)C(C)(C)C)cc(OC)c1OC [SiFA-FP, 4b, (S)-N-((1-Allylpyrrolidine-2-yl)methyl)-5-(di-tert-butylfluorosilyl)-2,3-dimethoxybenzamide] |  | 33 ± 7.6 |  | 342 | 
6 | C=CCN1CCCC1CNC(=O)c1cc(CCCS[C@H]2CC(=O)N(c3ccc([Si](F)(C(C)(C)C)C(C)(C)C)cc3)C2=O)cc(OC)c1OC (stereo partly drawn) [SiFA-M-FP, 5, (S)-N-((1-Allylpyrrolidin-2-yl)methyl)-5-(3-(1-(4-(di-tert-butylfluorosilyl)phenyl)-2,5-dioxopyrrolidin-3-ylthio)propyl)-2,3-dimethoxybenzamide] |  | 4.21 ± 0.41 | 3.5 | 44 | 
